Assay results reported in patent US20260209304A1, “INSULIN RECEPTOR ANTAGONIST” (The Board of Trustees of the Leland Stanford Junior …, priority 2022, published 2026).
Positions of bridges follow the written chain, without caps; N, C: chain ends. Chains are numbered I, II in the order given. No end group written: not given here.

B1: Ins-AC-10-9 (designed binder)
chain 1: GIVEQCCHRICSLYQLENYCGGSLPETGG
chain 2: FVNQHLCGSELVEALYLVCGERGFFYTPK
B2: Ins-AC-10-11 (designed binder)
chain 1: GIVEQCCHRICSLYQLENYCGGSLPETGGGSLEEEWAQIQSEVWGRGSPSY
chain 2: FVNQHLCGSELVEALYLVCGERGFFYTPK

Columns and labels:
human insulin receptor [1] = target: T1, human insulin receptor (Homo sapiens, UniProt P06213); experiment: Cell-based pAKT (Ser473) assay in NIH 3T3 cells overexpressing human insulin receptor; parameters: expressed in transfected cells; host or cells: NIH 3T3 cell line derived from IGF-1R knockout mice (gift from A. Morrione, Thomas Jefferson University)
Description: All the values are shown as mean±SD (n=4). EC50 and IC50 values were calculated by Prism 9 (GraphPad Software, California, USA) with nonlinear regression curve fitting of dose-response asymmetric equation.
Cell-based pAKT and phosphor-IR-beta Assays. The bioactivities of the analogs were evaluated through a cell-based pAKT (Ser473) assay or phospho-IR-beta (Tyr1150/1151) assay. Endogenous levels of pAKT or phosphor-IR-beta were measured in a human insulin receptor overexpressed NIH 3T3 cell line, derived from IGF-1R knockout mice (a generous gift from A. Morrione, Thomas Jefferson University). Cells were cultured in DMEM (Gibco) with 10% fetal bovine serum (FBS, Gibco), 100 U/mL penicillin-streptomycin (Gibco), 2 mg/mL puromycin (Thermo Fisher Scientific), and 1 mg/mL normocin (InvivoGen) at 37° C. under 5% CO2. For the assays, 30,000 cells per well and 100 μl per well, were plated in a 96-well plate with culture media containing 1% FBS. 20 hours later, the media was removed and 50 μl of culture media with different concentrations of native insulin or analog was pipetted into each well. […] After 4 hours of incubation, the plate was read in a SpectraMax iD5 plate reader (Molecular Devices) and the data were processed according to the manufacturer's protocol. […]

insulin receptor (IR) = insulin receptor (IR) (Homo sapiens, UniProt P06213); experiment: Binding affinity of insulin-core mutants relative to the A13R mutation
human insulin receptor [2] = target: T1, human insulin receptor; experiment: cell-based or functional assay

Row | Molecule | EC50 (human insulin receptor [1]) | binding affinity relative to the A13R mutation (insulin receptor (IR)) | Agonist Activity (nM), cell-based pAKT assay (human insulin receptor [2]) | Antagonist Activity (nM), cell-based pAKT assay (human insulin receptor [2])
1 | I: GIVEQCCHRICSLYQLENYCGGSLPETGGGSLEEEWAQIQSEVWGRGSPSY / II: FVNQHLCGSELVEALYLVCGERGFFYTPK (disulfide I:6-I:11, I:7-II:7, I:20-II:19) [Ins-AC-10-11] | 11.5 pM | increased | – | –
2 | I: FVNQHLCGSELVEALYLVCGERGFFYTPK / II: GIVEQCCHRICSLYQLENYCGGSLPETGG (disulfide I:7-II:7, I:19-II:20, II:6-II:11) [Ins-AC-10-9] | 562 pM | increased | – | –
3 | B1 | – | – | 0.562 nM | –
4 | B2 | – | – | 0.0115 nM | 0.5 nM
